{"source": "patent US11969460B2", "about": "“Methods and compositions for treating decreased cognitive ability” (Saint Louis University, priority 2018, dated 2024)", "key": {"[1]": {"system": "mice", "conditions": "subjects with diet-induced obesity; Kumar et al. 2008; Gao et al. 2014, 2015; cited from earlier work"}, "[2]": {"system": "male C57BL/6J (B6) mice, aged 18 months", "assay": "Aversive T-maze acquisition after exogenous adropin^34-76 treatment", "format": "in vivo, mouse", "description": "(§1) Memory retention and acquisition were assessed using an aversive T-maze and novel objective recognition, as previously described (Farr et al., (2016) J Alzheimers Dis.; 54(4):1339-1348). Briefly, the T-maze consists of a black plastic alley with a start box at one end and two goal boxes at the other. An electrifiable floor of stainless steel rods run throughout the maze to deliver a foot-shock using a scrambled grid floor shocker (Model E13-08, Coulbourn Instruments, Whitehall, PA). Mice are not permitted to explore the maze prior to training. A block of training trials begins when mice are placed in the start box. The guillotine door is raised and a cue buzzer sounded simultaneously (doorbell type, at 55 dB); 5s later a mild aversive foot-shock is applied with an intensity of 0.35 mA. The arm of the maze entered on the first trial is designated “incorrect” and the mild foot-shock continued until the mouse enters the other goal box, which in all subsequent trials is designated “correct” for each mouse. Mice are trained until they made one active avoidance, with an inter-trial interval of 30-35s. The number of trials to make one active avoidance is the measure of acquisition. Retention is tested 7d later, with training continued until the criterion of making five active avoidances in six consecutive trials is achieved. The number of trials needed to reach this criterion is the measure of retention(Butler et al., (2012) The Journal of clinical endocrinology and metabolism.; 97(10):3783-3791; Wong et al., (2014) The Journal of biological chemistry.; 289(37):25976-25986).\n(§2) To examine the effects of […] adropin on a subject's cognitive ability, 34 male C57BL/6J (B6) mice, aged 18 months, were treated with exogenous adropin^34-76. Mice were purchased from The Jackson Laboratory (Bar Harbor, ME). After acclimation for 1 month, mice were separated into two weight matched groups of 15 mice: Group 1 adropin^34-76 treatment group and Group 2 saline vehicle control.\n(§3) The mice were administered a single intraperitoneal injection (volume 100 μl) each morning (0900h) for 4 weeks. Group 1 was administered adropin^34-76 at a dose of 90 nmol/kg/day. Group 2 was administered saline. The peptide was purchased from Neoscientific Inc. Behavioral testing began after 2 weeks of injections. Injections continued though testing until 4 weeks.\nMice prepared with adropin or placebo in Example 3 were subjected to the Acquisition T-maze test."}, "[3]": {"system": "male C57BL/6J (B6) mice, aged 18 months", "assay": "Novel Object Recognition test after exogenous adropin^34-76 treatment", "format": "in vivo, mouse", "description": "For the novel object recognition task, mice are habituated to an empty apparatus, a 58×66×11-cm white plastic box, for 5 min a day for 3 consecutive days prior to entry of objects. On the first day of training, mice are placed in the testing apparatus with two identical objects (A and B). 24h later the animal is reintroduced to the arena but this time one of the original objects is removed and a new object (C). Total time spent exploring each of the two objects is recorded. Anxiety will be assessed using open field and elevated plus maze tests. The experimental apparatus consists of a central platform, two open arms and two equal-sized closed arms opposite to each other. The test consisted of placing a mouse in the central platform facing an enclosed arm and allowing it to freely explore the maze for 5 min. The number of entries into the open and closed arms and the time spent in open arms was measure by an observer blind to treatment\nas §2, §3\nA non-amnesic subject will spend more time exploring the novel object than the familiar one. When adropin treated and vehicle treated mice were subjected to the Novel Object Recognition test, adropin treated mice spent more time exploring the novel object (FIG. 11, Table 1)"}, "[4]": {"assay": "Body weight and deaths during 4-week intraperitoneal treatment", "format": "in vivo", "conditions": "group 1, 90 nmol/kg/day intraperitoneal", "description": "as §2, §3"}, "[5]": {"system": "mice", "assay": "Metabolic effects of administered adropin^34-76 in mice", "format": "in vivo, mouse", "source_text": "The inventors have engineered transgenic mice that over express adropin (“AdrTG”) in the nervous system and peripheral tissues. […] In addition, reduced JNK phosphorylation and expression of cytokines indicates reduced neuroinflammatory processes. Inflammation is also increasingly considered an important predisposing risk factor for age-related neurodegeneration (Irwin & Vitiello (2019) Lancet Neurol. 18(3):296-306; Madhavan et a., Nat Rev Cardiol. 15(12):744-756). […] In addition, the inventors have also shown that adropin levels may be increased systemically by […] administration. […] (Kumar et al. 2008; Gao et al. 2014, 2015)\nUsing mice, the Inventors have shown that administration of adropin^34-76, in doses as low as 90 nmol/kg/day, delivered as two 45 nmol/kg injections, can be effective in producing changes in metabolism. Dose as high as 900 nmol/kg/d are well tolerated in mice. While the doses required for a desired clinical effect in humans is expected to vary between patients, the 90 nmol/kg dose administered by subcutaneous, intramuscular, or intravenous injection, either once or twice a day, may represent a preferred treatment protocol. […] The optimum dose and frequency for a particular subject may be determined by the patient's treating physician, based on the patient's cognitive response. […]"}, "[6]": {"system": "mice", "assay": "Tolerability of adropin^34-76 doses in mice", "format": "in vivo, mouse", "source_text": "Using mice, the Inventors have shown that administration of adropin^34-76, in doses as low as 90 nmol/kg/day, delivered as two 45 nmol/kg injections, can be effective in producing changes in metabolism. Dose as high as 900 nmol/kg/d are well tolerated in mice. While the doses required for a desired clinical effect in humans is expected to vary between patients, the 90 nmol/kg dose administered by subcutaneous, intramuscular, or intravenous injection, either once or twice a day, may represent a preferred treatment protocol. It is anticipated that the treatments would be administered daily, although long-acting formulations involving weekly injections are envisaged. The optimum dose and frequency for a particular subject may be determined by the patient's treating physician, based on the patient's cognitive response. It is anticipated that adropin therapy may or may not improve a subject's cognitive function relative to current baseline, however adropin therapy may result in significant delays in the advancement of the disease. Improvement may manifest as a significant delay or a reduced rate of subsequent cognitive decline."}, "[7]": {"system": "male C57BL/6J (B6) mice, aged 18 months", "assay": "Aversive T-maze retention after exogenous adropin^34-76 treatment", "format": "in vivo, mouse", "set-up": "key to T-maze Retention, Difference between means (Adropin vs. Vehicle): difference in trials to criterion, adropin minus vehicle; key to T-maze Retention: number of trials to reach criterion (5 avoidances in 6 trials)", "description": "as §1, §2, §3\n(FIG. 12, Table 3) Mice were retested in the maze after 7 days and Adropin treated mice retained learned memories and complete the maze in lets time."}}, "note": "Values joined by “and” are separate entries in the source; they are usually repeats but may differ in a detail not shown here. Equal values may be shown once.", "data": [{"substance": "Adropin^34-76 (CHSRSADVDSLSESSPNSSPGPCPEKAPPPQKPSHEGSYLLQP; listed as Homo sapiens)", "values": [{"measurement": "metabolic changes after intraperitoneal injection (in words)", "setting": "[1]", "result": "metabolic changes suggesting improvements in glucose control and reduced risk for type 2 diabetes"}, {"measurement": "T-maze acquisition, Difference between means (Adropin vs. Vehicle)", "setting": "[2]; 95% confidence interval −4.736 to −2.150", "result": "−3.443 ± 0.6301"}, {"measurement": "T-maze acquisition", "setting": "[2]; individual mice, number of trials to make one active avoidance, 90 nmol/kg/day intraperitoneal", "result": "7. (5×) and 8. (4×) and 9. (2×) and 6. (3×)"}, {"measurement": "T-maze acquisition, Mean ± SEM", "setting": "[2]; n = 14, P <0.0001 vs. Vehicle", "result": "7.357 ± 0.2695,"}, {"measurement": "performance in Acquisition T-maze test (in words)", "setting": "[2]; vs placebo treated mice", "result": "improved performance"}, {"measurement": "Novel Object Recognition % Novel Object, Difference between means (Adropin vs. Vehicle)", "setting": "[3]; 95% confidence interval 2.733 to 27.24", "result": "14.99 ± 5.982", "unit": "%"}, {"measurement": "Novel Object Recognition test 24 Hour delay % Novel Object", "setting": "[3]; individual mice, 90 nmol/kg/day intraperitoneal, 24 hour delay", "result": "55.56% and 77.50% and 66.67% and 79.10% and 51.06% and 100.00% and 51.61% and 46.43% and 42.86% and 53.06% and 37.50% and 40.74% and 64.58% and 62.50% and 58.82%"}, {"measurement": "Novel Object Recognition % Novel Object, Mean ± SEM", "setting": "[3]; n = 15, 90 nmol/kg/day intraperitoneal, P 0.0183 vs. Vehicle", "result": "58.88 ± 4.106, n = 15%"}, {"measurement": "cognitive performance in Novel Object Recognition test (in words)", "setting": "[3]; vs vehicle treated mice", "result": "improved cognitive performance"}, {"measurement": "deaths during treatment", "setting": "[4]", "result": "One mouse in group 1 died"}, {"measurement": "dose known to affect metabolic control", "setting": "[5]; male B6 mice, injection", "result": "about 450 nmol/kg"}, {"measurement": "dose effective in producing changes in metabolism", "setting": "[5]; mice, delivered as two 45 nmol/kg injections", "result": "≥ 90", "unit": "nmol/kg/day"}, {"measurement": "well tolerated dose", "setting": "[6]", "result": "≤ 900", "unit": "nmol/kg/day"}, {"measurement": "T-maze Retention, Difference between means (Adropin vs. Vehicle)", "setting": "[7]; 95% confidence interval −3.121 to −1.565", "result": "−2.343 ± 0.3792"}, {"measurement": "T-maze Retention", "setting": "[7]; individual mice, retested after 7 days, trials to five active avoidances in six consecutive trials, 90 nmol/kg/day intraperitoneal", "result": "7. (7×) and 8. and 6. (5×) and 9."}, {"measurement": "T-maze Retention, Mean ± SEM", "setting": "[7]; n = 14, P <0.0001 vs. Vehicle", "result": "6.857 ± 0.2310,"}, {"measurement": "performance in T-maze retention (in words)", "setting": "[7]; retested after 7 days", "result": "superior performance"}]}]}
